# Assay results as given in US4496587A, “Inhibition of bacterial toxin release by prostaglandins” (priority 1983, dated 1985).
# Legend:
# [1] = by acid in the stomach; cited from earlier work
# [2] = test system: C. difficile; test: cytotoxin in filtrates of C. difficile cultures grown in the presence of prostaglandin (Prostaglandin Incubated with C. difficile), titrated on HFF mono-layers; assay type: cell-based; conditions: for effectiveness as an antitoxic prostaglandin: by itself, in words; for decrease of the amount of toxin released from C. difficile: assay described in Example 1, pharmacologically practical amount, definition of antitoxic prostaglandin
# Description: (§1) Forty-five filtrates of C. difficile cultures grown in the presence of different concentrations of 16,16-dimethyl-PGE2 were assayed for cytotoxin. (ATCC 9689 stands for American Type Culture Collection number 9689, and patients 1, 2, 3, and 4 refer to cultures extracted from various hospital patients.) The first 25 cultures were incubated with the prostaglandin (in the concentrations noted) for 24 hr. These cultures were then filtered and the supernate was submitted for cytotoxicity testing. The remaining 20 cultures were incubated without prostaglandin, filtered and then the prostaglandin was added to each supernate prior to cytotoxicity testing. The cytotoxin assay utilized human skin fibroblasts (HFF) as mono-layers in Costar 24 well-trays. The results are presented as the reciprocal of the cytotoxin dilution (serial 10-fold) causing altered cell morphology for 50% of the cells in the mono-layer. (see Table II.) Thus, 1000 means that a 1:1000 dilution of the filtrate caused an altered cell morphology for 50% of the cells in the mono-layer. Therefore, the higher the number, the more cytotoxin is present.
# [3] = test system: Human skin fibroblasts (HFF); test: attempted protection of HFF from cytotoxins from different sources (altered cell morphology); assay type: cell-based
# Description: To determine whether the presence of 16,16-dimethyl-PGE2 might interfere with the cytotoxin assay, several concentrations of cytotoxins were assayed in the presence of various concentrations of a prostaglandin.
# The cytotoxins used were from hamster cecum, a filtrate of C. difficile broth culture, and the filtate of human feces from a patient with "antibiotic diarrhea". Serial 10-fold dilutions of the cytotoxins were prepared in BME-3% fbs. (BME 3% fbs is basal medium of Eagle with 3% fetal bovine (BOVINE Serum and antibiotics.))
# 16,16-Dimethyl-PGE2 (5 mg/ml in absolute ethanol) was used and further diluted in absolute ethanol.
# Human skin fibroblasts (HFF) monolayers in wells of Costar trays (24 well) were refed with 0.8 ml BME-3% fbs. 0.1 ml of the various prostaglandin concentrations and absolute ethanol alone were added to the appropriate wells. Separate wells were then treated with (0.1 ml) of the appropriate dilution of each cytotoxin. The trays were incubated at 37° and examined microscopically for evidence of altered cell morphology.
# Attempted protection of HFF from cytotoxins from different
# sources by 16,16-dimethyl-PGE2. The results are expressed as the
# number of cells showing evidence of altered morphology due to
# cytotoxin. (0 = no change, +1 = 25% of the cells are rounded,
# + 2 = 50% of the cells are rounded, +3 = 75% of the cells are
# rounded, and +4 = 100% of the cells are rounded. Tox =
# toxic concentration of prostaglandin.)
# [4] = test system: C. difficile; test: cytotoxin assay, prostaglandin added to supernate after incubation of C. difficile (Prostaglandin Added After Incubation), titrated on HFF mono-layers; assay type: cell-based
# Description: as §1
compound,measurement,setting,value
CCCCC[C@@](C)(O)/C=C/[C@H]1[C@H](O)CC(=O)[C@@H]1C/C=C\CCCC(=O)O [15(R)-15-methyl-PGE2],conversion in mammalian metabolism,[1],converted by acid in the stomach to 15(S)-15-methyl-PGE2
same,effectiveness as an antitoxic prostaglandin,[2],not highly effective
CCCCC[C@](C)(O)/C=C/[C@H]1[C@H](O)CC(=O)[C@@H]1C/C=C\CCCC(=O)O [15(S)-15-methyl-PGE2],decrease of the amount of toxin released from C. difficile,[2],at least 90%
same,effectiveness as an antitoxic prostaglandin,[2],effective
"CCCCC(C)(C)[C@@](C)(O)/C=C/[C@H]1[C@H](O)CC(=O)[C@@H]1C/C=C\CCCC(=O)O [15(S)-16,16-trimethyl-PGE2]",decrease of the amount of toxin released from C. difficile,[2],at least 90%
"CCCCC(C)(C)[C@H](O)/C=C/[C@H]1[C@H](O)CC(=O)[C@@H]1C/C=C\CCCC(=O)O [16,16-dimethyl-PGE2]",Cytotoxin Dilution (reciprocal of the cytotoxin dilution causing altered cell morphology for 50% of the cells),"[2]; Control, 24 hr, prostaglandin 1 mcg/ml",< 10
same,Cytotoxin Dilution (reciprocal of the cytotoxin dilution causing altered cell morphology for 50% of the cells),"[2]; Control, 24 hr, prostaglandin 10 mcg/ml",< 10
same,Cytotoxin Dilution (reciprocal of the cytotoxin dilution causing altered cell morphology for 50% of the cells),"[2]; Control, 24 hr, prostaglandin 50 mcg/ml",< 10
same,amount of toxin with increasing amount of prostaglandin,[2]; Table II overall,"as the amount of prostaglandin increases, the amount of toxin decreases"
same,decrease of the amount of toxin released from C. difficile,[2],at least 90%
same,Cytotoxin Dilution (reciprocal of the cytotoxin dilution causing altered cell morphology for 50% of the cells),"[2]; incubated with C. difficile ATCC #9689, 24 hr, prostaglandin 1 mcg/ml",100-1000
same,Cytotoxin Dilution (reciprocal of the cytotoxin dilution causing altered cell morphology for 50% of the cells),"[2]; incubated with C. difficile ATCC #9689, 24 hr, prostaglandin 10 mcg/ml",100
same,Cytotoxin Dilution (reciprocal of the cytotoxin dilution causing altered cell morphology for 50% of the cells),"[2]; incubated with C. difficile ATCC #9689, 24 hr, prostaglandin 50 mcg/ml",10
same,Cytotoxin Dilution (reciprocal of the cytotoxin dilution causing altered cell morphology for 50% of the cells),"[2]; incubated with C. difficile strain Patient 1, 24 hr, prostaglandin 1 mcg/ml",100-1000
same,Cytotoxin Dilution (reciprocal of the cytotoxin dilution causing altered cell morphology for 50% of the cells),"[2]; incubated with C. difficile strain Patient 1, 24 hr, prostaglandin 10 mcg/ml",10
same,Cytotoxin Dilution (reciprocal of the cytotoxin dilution causing altered cell morphology for 50% of the cells),"[2]; incubated with C. difficile strain Patient 1, 24 hr, prostaglandin 50 mcg/ml",10
same,Cytotoxin Dilution (reciprocal of the cytotoxin dilution causing altered cell morphology for 50% of the cells),"[2]; incubated with C. difficile strain Patient 2, 24 hr, prostaglandin 1 mcg/ml",10-100
same,Cytotoxin Dilution (reciprocal of the cytotoxin dilution causing altered cell morphology for 50% of the cells),"[2]; incubated with C. difficile strain Patient 2, 24 hr, prostaglandin 10 mcg/ml",10-100
same,Cytotoxin Dilution (reciprocal of the cytotoxin dilution causing altered cell morphology for 50% of the cells),"[2]; incubated with C. difficile strain Patient 2, 24 hr, prostaglandin 50 mcg/ml",< 10
same,Cytotoxin Dilution (reciprocal of the cytotoxin dilution causing altered cell morphology for 50% of the cells),"[2]; incubated with C. difficile strain Patient 3, 24 hr, prostaglandin 1 mcg/ml",< 10
same,Cytotoxin Dilution (reciprocal of the cytotoxin dilution causing altered cell morphology for 50% of the cells),"[2]; incubated with C. difficile strain Patient 3, 24 hr, prostaglandin 10 mcg/ml",< 10
same,Cytotoxin Dilution (reciprocal of the cytotoxin dilution causing altered cell morphology for 50% of the cells),"[2]; incubated with C. difficile strain Patient 3, 24 hr, prostaglandin 50 mcg/ml",< 10
same,Cytotoxin Dilution (reciprocal of the cytotoxin dilution causing altered cell morphology for 50% of the cells),"[2]; incubated with C. difficile strain Patient 4, 24 hr, prostaglandin 1 mcg/ml",100
same,Cytotoxin Dilution (reciprocal of the cytotoxin dilution causing altered cell morphology for 50% of the cells),"[2]; incubated with C. difficile strain Patient 4, 24 hr, prostaglandin 10 mcg/ml",10-100
same,Cytotoxin Dilution (reciprocal of the cytotoxin dilution causing altered cell morphology for 50% of the cells),"[2]; incubated with C. difficile strain Patient 4, 24 hr, prostaglandin 50 mcg/ml",10
same,cells showing evidence of altered morphology due to cytotoxin,"[3]; C. difficile filtrate 1:10, prostaglandin 0.01 mcg/ml",4
same,cells showing evidence of altered morphology due to cytotoxin,"[3]; C. difficile filtrate 1:10, prostaglandin 0.1 mcg/ml",4
same,cells showing evidence of altered morphology due to cytotoxin,"[3]; C. difficile filtrate 1:10, prostaglandin 1 mcg/ml",4
same,cells showing evidence of altered morphology due to cytotoxin,"[3]; C. difficile filtrate 1:10, prostaglandin 10 mcg/ml",4
same,cells showing evidence of altered morphology due to cytotoxin,"[3]; C. difficile filtrate 1:100, prostaglandin 0.01 mcg/ml",4
same,cells showing evidence of altered morphology due to cytotoxin,"[3]; C. difficile filtrate 1:100, prostaglandin 0.1 mcg/ml",4
same,cells showing evidence of altered morphology due to cytotoxin,"[3]; C. difficile filtrate 1:100, prostaglandin 1 mcg/ml",4
same,cells showing evidence of altered morphology due to cytotoxin,"[3]; C. difficile filtrate 1:100, prostaglandin 10 mcg/ml",4
same,cells showing evidence of altered morphology due to cytotoxin,"[3]; C. difficile filtrate 1:1000, prostaglandin 0.01 mcg/ml",3
same,cells showing evidence of altered morphology due to cytotoxin,"[3]; C. difficile filtrate 1:1000, prostaglandin 0.1 mcg/ml",3
same,cells showing evidence of altered morphology due to cytotoxin,"[3]; C. difficile filtrate 1:1000, prostaglandin 1 mcg/ml",3
same,cells showing evidence of altered morphology due to cytotoxin,"[3]; C. difficile filtrate 1:1000, prostaglandin 10 mcg/ml",3
same,cells showing evidence of altered morphology due to cytotoxin,"[3]; Human cytotoxin 1:10, prostaglandin 0.01 mcg/ml",4
same,cells showing evidence of altered morphology due to cytotoxin,"[3]; Human cytotoxin 1:10, prostaglandin 0.1 mcg/ml",4
same,cells showing evidence of altered morphology due to cytotoxin,"[3]; Human cytotoxin 1:10, prostaglandin 1 mcg/ml",4
same,cells showing evidence of altered morphology due to cytotoxin,"[3]; Human cytotoxin 1:10, prostaglandin 10 mcg/ml",4
same,cells showing evidence of altered morphology due to cytotoxin,"[3]; Human cytotoxin 1:100, prostaglandin 0.01 mcg/ml",4
same,cells showing evidence of altered morphology due to cytotoxin,"[3]; Human cytotoxin 1:100, prostaglandin 0.1 mcg/ml",4
same,cells showing evidence of altered morphology due to cytotoxin,"[3]; Human cytotoxin 1:100, prostaglandin 1 mcg/ml",4
same,cells showing evidence of altered morphology due to cytotoxin,"[3]; Human cytotoxin 1:100, prostaglandin 10 mcg/ml",3
same,cells showing evidence of altered morphology due to cytotoxin,"[3]; Human cytotoxin 1:1000, prostaglandin 0.01 mcg/ml",1
same,cells showing evidence of altered morphology due to cytotoxin,"[3]; Human cytotoxin 1:1000, prostaglandin 0.1 mcg/ml",1
same,cells showing evidence of altered morphology due to cytotoxin,"[3]; Human cytotoxin 1:1000, prostaglandin 1 mcg/ml",1
same,cells showing evidence of altered morphology due to cytotoxin,"[3]; Human cytotoxin 1:1000, prostaglandin 10 mcg/ml",1
same,effect on the interaction of the cytotoxin with the cell,[3]; conclusion from Table III,did not affect the interaction of the cytotoxin with the cell
same,protecting fibroblasts from morphological changes due to the action of the cytotoxin,[3]; cytotoxins from three different sources,ineffective
same,Cytotoxin Dilution (reciprocal of the cytotoxin dilution causing altered cell morphology for 50% of the cells),"[4]; ATCC #9689, prostaglandin 1 mcg/ml",100-1000
same,Cytotoxin Dilution (reciprocal of the cytotoxin dilution causing altered cell morphology for 50% of the cells),"[4]; ATCC #9689, prostaglandin 10 mcg/ml",10-100
same,Cytotoxin Dilution (reciprocal of the cytotoxin dilution causing altered cell morphology for 50% of the cells),"[4]; ATCC #9689, prostaglandin 50 mcg/ml",10
same,Cytotoxin Dilution (reciprocal of the cytotoxin dilution causing altered cell morphology for 50% of the cells),"[4]; Patient 1, prostaglandin 1 mcg/ml",1000
same,Cytotoxin Dilution (reciprocal of the cytotoxin dilution causing altered cell morphology for 50% of the cells),"[4]; Patient 1, prostaglandin 10 mcg/ml",< 100
same,Cytotoxin Dilution (reciprocal of the cytotoxin dilution causing altered cell morphology for 50% of the cells),"[4]; Patient 1, prostaglandin 50 mcg/ml",100
same,Cytotoxin Dilution (reciprocal of the cytotoxin dilution causing altered cell morphology for 50% of the cells),"[4]; Patient 2, prostaglandin 1 mcg/ml",10
same,Cytotoxin Dilution (reciprocal of the cytotoxin dilution causing altered cell morphology for 50% of the cells),"[4]; Patient 2, prostaglandin 10 mcg/ml",10
same,Cytotoxin Dilution (reciprocal of the cytotoxin dilution causing altered cell morphology for 50% of the cells),"[4]; Patient 2, prostaglandin 50 mcg/ml",< 10
same,Cytotoxin Dilution (reciprocal of the cytotoxin dilution causing altered cell morphology for 50% of the cells),"[4]; Patient 3, prostaglandin 1 mcg/ml",< 10
same,Cytotoxin Dilution (reciprocal of the cytotoxin dilution causing altered cell morphology for 50% of the cells),"[4]; Patient 3, prostaglandin 10 mcg/ml",< 10
same,Cytotoxin Dilution (reciprocal of the cytotoxin dilution causing altered cell morphology for 50% of the cells),"[4]; Patient 4, prostaglandin 1 mcg/ml",100-1000
same,Cytotoxin Dilution (reciprocal of the cytotoxin dilution causing altered cell morphology for 50% of the cells),"[4]; Patient 4, prostaglandin 10 mcg/ml",100
same,Cytotoxin Dilution (reciprocal of the cytotoxin dilution causing altered cell morphology for 50% of the cells),"[4]; Patient 4, prostaglandin 50 mcg/ml",10-100
